Measurements: patent publication US11225469B2, “Inhibitors of phosphoglycerate dehydrogenase (PHGDH) and uses thereof” (Whitehead Institute for Biomedical Research, priority 2015, dated 2022)

Assays:
[1] = Pharmacokinetics after intraperitoneal administration; format: in vivo
panel of 168 GPCRs = experiment: Cross-reactivity in a panel of 168 GPCRs
GAPDH = GAPDH (Homo sapiens (Human), UniProt P04406); experiment: Counter-screen against GAPDH; format: biochemical; conditions: Table E11
Procedure: (§1) GAPDH substrate buffer contained 210 mM Tris pH 7.4, 2.5 mM NaH2PO4 pH 7.4, 2 mM DL-Glyceraldehyde 3-phosphate, 1.75 mM MgCl2, 0.01 mM NAD+, 0.11 mM resazurin, 0.2 mg/mL BSA, and 0.01% Tween-20. GAPDH enzyme buffer contained 50 mM Tris pH 7.4, 100 mM NaCl, 0.02 mM TCEP, 0.01 mM EDTA, 0.1 mg/mL BSA, 0.42 mg/mL diaphorase, and 2.5 nM GAPDH. The GAPDH, GPD1, and GPD1L assays were run in 384-well plates using the same protocol and readout as the PHGDH assay. […] GPD1 enzyme buffer contained 50 mM Tris pH 7.4, 100 mM NaCl, 0.08 mM TCEP, 0.4 mg/mL BSA, 0.03 μM EDTA, and 0.8 nM GPD1. 70 μL of substrate buffer were mixed with 10 μL enzyme buffer. GPD1L substrate buffer contained 200 mM Tris pH 7.4, 0.05 mM sn-G3-P, 2 mM MgCl2, 0.04 mM NAD+, 0.11 mM resazurin, 0.1 mg/mL BSA, and 0.02% Tween-20. GPD1L enzyme buffer contained 50 mM Tris pH 7.4, 100 mM NaCl, 0.02 mM TCEP, 0.42 mg/mL diaphorase, 0.1 mg/mL BSA, 0.008 μM EDTA, and 16 nM GPD1L. 40 μL of substrate buffer were mixed with 40 μL of enzyme buffer.
(§2) The GAPDH and GPD1L assays were read using the same protocol as the PHGDH assay. The GPD1 assay was read using loss of NADH fluorescence (λex=340 nm and λem=460 nm).

[2] = test system: PHGDH-independent cell lines (ZR-75-1, SK-MEL-2); experiment: Cytotoxicity (Cell Titer-Glo), other PHGDH-independent cell lines; format: cell-based, human
Procedure: Knockdown of PHGDH is selectively toxic towards PHGDH-dependent cell lines, and minimally toxic towards PHGDH-independent cell lines. […] Cell count was determined by quantitating the amount of ATP present with CellTitreGlo® measurements 96 hours after dosage.
Cells were seeded in white 96-well plates (Greiner) at a density of 2000 cells/well (MDA-MB-468, BT-20, MT-3) or 1000 cells/well (all other cell lines) and allowed to attach for 24 hours. Compounds were prepared in DMSO and dispensed using an HP D300 compound dispenser. Cell viability was assessed with Cell Titer-Glo (Promega) at four days following treatment and luminescence measured with a SpectraMax M5 Plate Reader (Molecular Devices). Luminescence was normalized to an untreated control in identical medium. For rescue experiments, RPMI was supplemented with 40 μM adenosine, uridine, guanosine, cytidine, deoxyadenosine, thymidine, deoxyguanosine, and deoxycytidine and the medium was replaced daily.

MDA-MB-468 tumors = experiment: U-13C-glucose infusion in mice bearing MDA-MB-468 tumors (target engagement); format: in vivo, mouse
Procedure: Thus, the PHGDH inhibitors described herein engage PHGDH in tumors and recapitulate the selective toxicity of PHGDH knockdown in vivo.
Chronic catheters were surgically implanted into the jugular veins of normal or tumor bearing animals 3-4 days prior to infusions. Animals were fasted for 6 hours (morning fast) and infusions were performed in free-moving, conscious animals at 1:00 pm for all studies to minimize metabolic changes associated with circadian rhythm. […] Animals were terminally anesthetized with sodium pentobarbital and all tissues were fully harvested in less than 5 minutes to preserve the metabolic state. Tumors and adjacent lung tissue were carefully dissected and rapidly frozen using a BioSqueezer (BioSpec Products) to ensure rapid quenching of metabolism throughout the tissue section. Tissues were stored at −80 C and extracted with 80:20 (v/v) methanol:water in the same manner as cells prior to LCMS analysis.

[3] = test system: serine biosynthetic pathway; experiment: Labeled serine in brain after tail vein injection of 13C glucose; format: in vivo, mouse; conditions: 35 mg/kg
Procedure: The mice were sacrificed at the indicated times, and the fraction of labeled serine in the brain was determined by LC-MS and normalized to the fraction of labeled lactate (FIG. 4J).

[4] = test system: MDA-MB-468 orthotopic xenografts; experiment: MDA-MB-468 orthotopic xenografts; format: in vivo, mouse; conditions: 40 mg/kg daily, IP
Procedure: Female NOD.CB17-Prkdc^scid/J mice, 6-8 weeks old, were obtained from Jackson Laboratories. All animals were provided with food ad libitum for the duration for the duration of the experiment. The animals were allocated randomly for induction with MDA-MB-231 or MDA-MB-468 tumors and tumor group was assigned blindly. 500,000 MDA-MB-231 or MDA-MB-468 cells were injected into the 4th mammary fat pad of each mouse. After 30 days, the tumors were palpable, and the mice were pooled by tumor type and divided randomly to two groups, which were assigned blindly to vehicle or NCT-503 treatment. […] Caliper measurements were obtained twice weekly and tumor volumes were calculated with the modified ellipsoid formula: volume=0.5×width^2×length.
For quantitation of necrotic regions, fixed tumors were embedded and sections stained with hematoxylin and eosin. Slides were scanned with a Leica Aperio AT2 brightfield scanner. Tumor and necrotic cross-sectional regions were manually delineated and measured using Leica ImageScope software to calculate the percentage of necrosis.

MDA-MB-468 cells = experiment: Cell cycle analysis; format: cell-based, human; conditions: after 48 hours
Solubility = format: physicochemical
[5] = test system: panel of other dehydrogenases; experiment: Panel of other dehydrogenases; format: biochemical
PHGDH = PHGDH (Homo sapiens (Human), UniProt O43175); experiment: Inhibitor kinetics: competition against substrates and dilution experiments; format: biochemical; conditions: Lineweaver-Burk
Description: Destabilization has been previously observed in the specific binding of small molecules to their protein targets (see, e.g., Hamiaux, C. et al. “DAD2 is an α/β hydrolase likely to be involved in the perception of the plant branching hormone, strigolactone.” Curr Biol 22, 2032-2036 (2012)).

C234S PHGDH = C234S PHGDH (Homo sapiens (Human), UniProt O43175, C234S); experiment: Inhibition of C234S mutant PHGDH in vitro; format: biochemical; conditions: C234S vs wild type PHGDH
GPD1 = GPD1 (Homo sapiens (Human), UniProt P21695); experiment: Counter-screen against GPD1; format: biochemical; conditions: Table E11
Procedure: as §1, §2

GPD1L = GPD1L (Homo sapiens (Human), UniProt Q8N335); experiment: Counter-screen against GPD1L; format: biochemical; conditions: Table E11
Procedure: as §1, §2

Chain of PHGDH (O43175 whole entry): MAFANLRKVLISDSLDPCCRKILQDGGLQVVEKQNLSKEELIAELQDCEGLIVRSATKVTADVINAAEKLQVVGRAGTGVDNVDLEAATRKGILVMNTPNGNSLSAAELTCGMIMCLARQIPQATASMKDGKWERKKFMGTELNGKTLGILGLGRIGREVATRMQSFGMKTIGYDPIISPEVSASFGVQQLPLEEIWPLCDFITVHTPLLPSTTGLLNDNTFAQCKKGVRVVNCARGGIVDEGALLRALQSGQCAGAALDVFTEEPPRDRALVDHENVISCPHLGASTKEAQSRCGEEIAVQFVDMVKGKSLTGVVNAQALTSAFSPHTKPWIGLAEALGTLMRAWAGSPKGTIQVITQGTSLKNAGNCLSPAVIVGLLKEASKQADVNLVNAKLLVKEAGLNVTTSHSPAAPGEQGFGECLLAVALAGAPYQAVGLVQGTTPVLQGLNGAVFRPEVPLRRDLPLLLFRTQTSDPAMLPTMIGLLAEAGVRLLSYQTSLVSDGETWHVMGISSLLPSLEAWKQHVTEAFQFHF
Chain of C234S PHGDH (O43175 whole entry C234S): as the sequence (O43175 whole entry) above, with C234S counted along it
Chain of GAPDH (P04406 whole entry): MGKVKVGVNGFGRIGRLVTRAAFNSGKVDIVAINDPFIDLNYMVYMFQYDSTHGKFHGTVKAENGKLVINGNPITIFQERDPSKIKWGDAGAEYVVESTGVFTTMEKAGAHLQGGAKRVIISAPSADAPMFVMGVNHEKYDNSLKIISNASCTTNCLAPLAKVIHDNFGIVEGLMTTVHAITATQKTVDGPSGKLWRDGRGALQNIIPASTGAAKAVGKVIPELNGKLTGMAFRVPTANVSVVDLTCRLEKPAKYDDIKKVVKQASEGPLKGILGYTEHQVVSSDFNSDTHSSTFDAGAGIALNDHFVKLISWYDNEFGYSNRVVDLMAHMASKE
Chain of GPD1L (Q8N335 whole entry): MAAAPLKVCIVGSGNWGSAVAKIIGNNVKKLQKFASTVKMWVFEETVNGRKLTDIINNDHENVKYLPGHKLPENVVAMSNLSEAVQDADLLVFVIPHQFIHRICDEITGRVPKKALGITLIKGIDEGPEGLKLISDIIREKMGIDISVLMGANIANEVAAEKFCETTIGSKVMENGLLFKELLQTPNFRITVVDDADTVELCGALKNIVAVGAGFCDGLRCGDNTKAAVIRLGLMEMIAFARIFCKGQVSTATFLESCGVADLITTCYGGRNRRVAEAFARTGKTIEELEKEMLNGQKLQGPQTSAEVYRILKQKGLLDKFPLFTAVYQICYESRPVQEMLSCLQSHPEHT
Chain of GPD1 (P21695 whole entry): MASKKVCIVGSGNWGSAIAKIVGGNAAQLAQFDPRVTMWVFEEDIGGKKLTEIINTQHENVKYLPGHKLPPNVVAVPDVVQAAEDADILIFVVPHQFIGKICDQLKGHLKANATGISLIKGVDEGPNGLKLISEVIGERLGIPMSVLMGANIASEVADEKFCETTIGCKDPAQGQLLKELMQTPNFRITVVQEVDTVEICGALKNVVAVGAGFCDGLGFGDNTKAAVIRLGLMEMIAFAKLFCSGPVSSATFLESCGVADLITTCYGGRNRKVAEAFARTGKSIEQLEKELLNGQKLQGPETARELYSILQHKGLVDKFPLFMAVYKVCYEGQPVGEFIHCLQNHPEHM

In the case of `Cc1cc(C)nc(NC(=S)N2CCN(Cc3ccc(C(F)(F)F)cc3)CC2)c1` [Compound 267, N-(4,6-dimethylpyridin-2-yl)-4-(4-(trifluoromethyl)benzyl)piperazine-1-carbothioamide], the “partitioning into the liver and brain” value [1] is reported as “significant partitioning”, the “cross-reactivity, modulation of activity” value (panel of 168 GPCRs) is reported as less than 30% and the IC50 (GAPDH) is reported as no less than 100 µM. For the same compound, the toxicity [2] was “no toxicity”, the “production of glucose-derived serine in tumors” value (MDA-MB-468 tumors) was “decreased production” and the “incorporation of carbon-13 from glucose into serine in the brain” value [3] was “block incorporation”. The fraction of necrosis [4] was “increases the fraction of necrosis”, the “growth and weight of xenografts” value [4] was “reduced the growth and weight” and the cell cycle effect (MDA-MB-468 cells) was “G1/S arrest”. For the same compound, the aqueous solubility (Solubility) was “reasonable aqueous solubility”, the “activity against a panel of other dehydrogenases” value [5] was “inactive” and the “type of inhibition with respect to 3-PG” value (PHGDH) was “mixed-mode inhibition”. The “type of inhibition with respect to NAD+” value (PHGDH) was “non-competitive inhibition”, the “reduction of potency of PHGDH inhibition by C234S mutation” value (C234S PHGDH) was “approximately 3 fold” and the IC50 (GPD1) was no less than 100 µM. For the same compound, the IC50 (GPD1L) was no less than 100 µM.
